Test results reported in patent publication US7208167B2, “Treatment of hepatitis C with thymosin and peptide combination therapy” (SciClone Pharmaceuticals, Inc., priority 2000, dated 2007).
Marks after values point to notes of the source that are not given here. Ends that are not written are not given here.

Assays:
[1] = tested on: HCV genotype-1a; experiment: Case report, person with hepatitis C: HCV RNA levels; format: in vivo, patient
Procedure: Then it was decided to start PEG Intron at ⅕ mc/kg/w, ribavirin at 12 mg/kg/day and thymosin-alpha-1 at 3.2 mcg BIW SQ, as a second course of treatment.

[2] = in vivo
Text: Patients will be monitored for significant side-effects or allergic manifestations possibly resulting from treatment. […] Patients will be educated on the symptoms of severe anaphylactic reactions and informed of appropriate countermeasures.

[3] = tested on: HCV genotype 1; experiment: 12-week dose ranging study of thymalfasin plus PEG-IFN2a in chronic hepatitis C non-responders: serum HCV RNA, EVR; format: in vivo, patients; details: for Median Reduction HCV RNA (log): week 12
Procedure: The effects of 3 different doses of thymalfasin (TA1) in combination with PEG-IFN2a on week 12 HCV RNA levels and T cell counts was investigated.
(§1) Patients with chronic hepatitis C who were non-responders to previous antiviral therapy were randomized to receive PEG-IFN2a 180 μg/week plus thymalfasin given twice a week by subcutaneous injection (Group 1, 0.8 mg; Group 2, 1.6 mg; Group 3, 3.2 mg). In order to assess effect of thymalfasin on PEG-IFN2a, patients were included only if they were infected with HCV genotype 1 and had serum HCV RNA levels greater than 2 million copies per ml. The effect of therapy was assessed on the reduction in serum HCV RNA after 12 weeks, early virologic response (EVR, proportion which greater than 2 log reduction or negative HCV RNA by the Roche Amplicor assay) and on changes in peripheral CD3 and CD4 lymphocyte counts from baseline (assessed by flow cytometry).
31 patients (26 male) with median age 47 yrs (range 39–58) were enrolled. Four were non-responders to a previous course of standard IFN alone while 27 had previously non responded to standard IFN with ribavirin. All subjects completed 12 weeks of therapy. Six (19%) became negative for HCV RNA on therapy. […] The median reduction in HCV RNA increased with dose with thymosin (Table B).
Patients were randomized into three groups to receive 180 mcg/week of pegylated interferon alpha-2a plus one of three different bi-weekly doses of TA1.

[4] = tested on: peripheral CD4 lymphocyte counts; experiment: Same study: change in peripheral CD4 lymphocyte counts from baseline (flow cytometry); format: in vivo, patients
Procedure: as §1

[5] = tested on: peripheral CD3 lymphocyte counts; experiment: Same study: change in peripheral CD3 lymphocyte counts from baseline (flow cytometry); format: in vivo, patients
Procedure: as §1

[6] = Group 1: 0.8 mg biw + PEG-IFN2a 180 μg/week
[7] = Group 2: 1.6 mg biw + PEG-IFN2a 180 μg/week
[8] = Group 3: 3.2 mg biw + PEG-IFN2a 180 μg/week

**Q.** For “thymalfasin: 28 amino acidic polypeptide with a molecular weight of 3100 that has potent immunologic activity; synthetic Tα1 by SciClone (Ac-SDAAVDTSSEITTKDLKEKKEVVEEAEN; UniProt P06454 2-29, looked up)”, which “HCV RNA by TMA” value ([1]; 1 and 3 months after stopping 12 months of PEG Intron + ribavirin + thymosin-alpha-1) is on record?
**A.** negative

**Q.** What about the “HCV RNA blood levels by TMA” value ([1]; PEG Intron ⅕ mc/kg/w + ribavirin 12 mg/kg/day + thymosin-alpha-1 3.2 mcg BIW SQ, month 1, 3, 6 and 12) of the same substance?
**A.** less than 5 IU/mL

**Q.** What about the “local or systemic side effects” value [2] of the same substance?
**A.** no local or systemic side effects have been observed

**Q.** And the “EVR, early virologic response (greater than 2 log reduction or negative HCV RNA)” value ([3]; Group 1: 0.8 mg biw + PEG-IFN2a 180 μg/week, 12 weeks, listed as T1)?
**A.** 20%

**Q.** What about the “EVR, early virologic response (greater than 2 log reduction or negative HCV RNA)” value ([3]; Group 1: 0.8 mg biw + PEG-IFN2a 180 μg/week, 12 weeks, listed as TA1) of the same substance?
**A.** 20%

**Q.** What about the “Median Reduction HCV RNA (log)” value ([3]; Group 1: T1 0.8 mg biw sc + PEG-IFN2a 180 μg/week, n=10) of the same substance?
**A.** 0.57 log

**Q.** What about the “EVR, early virologic response (greater than 2 log reduction or negative HCV RNA)” value ([3]; Group 2: 1.6 mg biw + PEG-IFN2a 180 μg/week, 12 weeks, listed as T1) of the same substance?
**A.** 30%

**Q.** And the “EVR, early virologic response (greater than 2 log reduction or negative HCV RNA)” value ([3]; Group 2: 1.6 mg biw + PEG-IFN2a 180 μg/week, 12 weeks, listed as TA1)?
**A.** 30%

**Q.** What about the “Median Reduction HCV RNA (log)” value ([3]; Group 2: T1 1.6 mg biw sc + PEG-IFN2a 180 μg/week, n=10, p < 0.01 vs group 1) of the same substance?
**A.** 0.97* log

**Q.** What about the “EVR, early virologic response (greater than 2 log reduction or negative HCV RNA)” value ([3]; Group 3: 3.2 mg biw + PEG-IFN2a 180 μg/week, 12 weeks, listed as T1) of the same substance?
**A.** 36%

**Q.** And the “EVR, early virologic response (greater than 2 log reduction or negative HCV RNA)” value ([3]; Group 3: 3.2 mg biw + PEG-IFN2a 180 μg/week, 12 weeks, listed as TA1)?
**A.** 36%

**Q.** What about the “Median Reduction HCV RNA (log)” value ([3]; Group 3: T1 3.2 mg biw sc + PEG-IFN2a 180 μg/week, n=11, p < 0.005 vs group 1) of the same substance?
**A.** 1.09** log

**Q.** What about the “Patients who became negative for HCV RNA on therapy” value ([3]; all 31 patients, all three dose groups, with PEG-IFN2a, 12 weeks) of the same substance?
**A.** 19%

**Q.** And the “CD4+ change from baseline” value [4, 6]?
**A.** −0.2%

**Q.** And the “CD4+ change from baseline” value [4, 7]?
**A.** +14.8%

**Q.** What about the “CD4+ change from baseline” value [4, 8] of the same substance?
**A.** +8.8%

**Q.** What about the “CD3+ change from baseline” value [5, 6] of the same substance?
**A.** 0%

**Q.** What about the “CD3+ change from baseline” value [5, 7] of the same substance?
**A.** +8.3%

**Q.** What about the “CD3+ change from baseline” value [5, 8] of the same substance?
**A.** +7.5%
